In assay [1] the test system is C57BL/6 mice. Briefly: Femur bone density/volume by pQCT, 30-day i.p. study (FIG. 2). Type of assay: in vivo, mouse. The conditions noted are these: male C57BL/6 mice, daily i.p. 30 days, 40 mg/kg. How it is done:
(§1) Four month old male C57BL/6 mice were treated daily with saline vehicle or the sclerostin inhibitor of harmine hydrochloride at 20 (“L”), 40 (“M”) or 90 (“H”) mg/kg (via i.p) for 30 days. Study endpoints included measurement of femur bone volume by pQCT analysis (FIG. 2), and a biochemical marker of bone formation, osteocalcin, measured by EIA Elisa (FIG. 3). […] Lumbar vertebra L5 bone volume increased 2% over saline baseline, as measured by uCT, and 73%, as measured by DEXA Piximus.

For assay [2], the system named is Wnt pathway. Briefly: Wnt pathway modulation to promote bone growth (FIG. 1). The conditions noted are these: doses of 2.5 ng (low), 60 ng (medium), 125 ng (high). How it is done: For example, the mouse test animal is treated with a predetermined dose of a SOST antagonist candidate for a complete dosing schedule. A control mouse is treated with a control solution, preferably a non-irritating buffer solution or other carrier. Once the dosing schedule has been completed, both test and control animals are examined with sacrifice using micro-CT to determine the quantity of bone formation present.

Assay [3] deals with C57BL/6 mice. In words: Serum osteocalcin bone formation marker by EIA Elisa, 30-day i.p. study (FIG. 3). Type of assay: in vivo, mouse. The conditions noted are these: male C57BL/6 mice, 40 mg/kg daily i.p. 30 days. How it is done:
as §1

In assay [4] the test system is mouse. Briefly: Bone formation in treated vs control mice by micro-CT (Example 1). Type of assay: in vivo. The conditions noted are these: test vs control solution, after complete dosing schedule. The text has this:
Compounds useful in the methods of the present invention can be identified via a variety of methods known to one of skill in the art. Several exemplary methods for identifying such antagonists are described herein, including cell-based and in vitro techniques (Journal of Bone and Mineral Research 2006, 21(11), 1738-1749). A general method of identifying SOST antagonists involves evaluating the effects of antagonist candidates on bone formation under controlled conditions. Preferably bone formation is determined using micro-CT techniques on live animals. Preferred animals include rodents, more preferred are primates. Femur, tibia and vertebrae bones are particularly useful subjects for such study.
Briefly, the test animal is treated with a predetermined dose of a SOST antagonist candidate. […]
Once the dosing schedule has been completed, both test and control animals are examined to determine the quantity of bone formation present. […] Where necessary, levels of bone formation can be calculated by determining the volume of bone formation present in each animal. […]
For example, the mouse test animal is treated with a predetermined dose of a SOST antagonist candidate for a complete dosing schedule. […] Once the dosing schedule has been completed, both test and control animals are examined with sacrifice using micro-CT to determine the quantity of bone formation present.

Assay [5] concerns C57BL/6 mice. In words: Lumbar vertebra L5 bone volume by uCT, 30-day i.p. study. Type of assay: in vivo, mouse. As to conditions: measured by uCT; male C57BL/6 mice, daily i.p. 30 days; dose not stated. The method, then:
as §1

Assay [6] relates to C57BL/6 mice. Briefly: Lumbar vertebra L5 bone volume by DEXA Piximus, 30-day i.p. study. Type of assay: in vivo, mouse. The conditions noted are these: measured by DEXA Piximus; male C57BL/6 mice, daily i.p. 30 days; dose not stated. How it is done: as §1

Where a name gives a salt, the structure may show the parent alone.

For the compound `COc1ccc2c(c1)[nH]c1c(C)nccc12` [harmine hydrochloride], the “increase over baseline for femur bone density” value in assay [1] came out at 13%. The “modulation of the Wnt pathway to promote bone growth” value in assay [2] is “modulating the Wnt pathway to promote bone growth”. Further, in assay [3], the “percent increase in serum osteocalcin bone formation marker over saline controls” value is 65%. Also, in assay [4], the “bone growth (quantity of bone formation by micro-CT)” value is on record as “promoting bone growth”. Besides, the figures for the “Lumbar vertebra L5 bone volume increase over saline baseline” value in assay [5] and in assay [6] were 2% and 73%, respectively.

Values taken from patent US20100074939A1 (OsteoGeneX Inc., priority 2008, published 2010).
